Data: PMC4811770 (eLife, 2016)
Counter-ions that a name gives are not always drawn. Like-named read-outs stand apart in the source and are kept apart here.

What was measured:
wild-type sperm = test: Intracellular pH measurement with BCECF in wild-type sperm; format: cell-based, mouse
sperm = conditions: 25 mM bicarbonate, after rapid rise at 1 min
[1] = system: sperm flagellum (mlCNBD-FRET sperm); test: Dual-view FRET imaging of cAMP dynamics in the flagellum of mlCNBD-FRET sperm; format: cell-based, mouse
tmAC = system: T1, tmAC; test: Maximal cAMP-dependent FRET ratio of mlCNBD-FRET in HEK293 cells after stimulation of endogenous adenylate cyclases with increasing NKH477 concentrations.; format: cell-based; conditions: SD, n = 4
T1 construct: endogenous in HEK293 cells, isoform not specified

mlCNBD-FRET = biological target: T2, mlCNBD-FRET (Mesorhizobium japonicum, UniProt Q98GN8); test: Spectrofluorometric titration of 1 uM purified sensor with cGMP, cerulean/citrine FRET ratio at 430 nm excitation, single-site fit.; format: binding; conditions: SD, n = 6
T2 construct: gene mll3241; CNBD (Phe223 to Arg349) with citrine fused to N-terminus and cerulean to C-terminus, C-terminal His10 tag
T2 sequence (Q98GN8 223-349): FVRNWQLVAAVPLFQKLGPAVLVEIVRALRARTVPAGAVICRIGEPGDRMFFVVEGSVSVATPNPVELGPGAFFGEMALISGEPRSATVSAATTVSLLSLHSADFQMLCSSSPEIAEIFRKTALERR

[2] = system: HEK293 cells expressing mlCNBD-FRET; test: cAMP/cGMP dynamics (FRET ratio) in HEK293 cells expressing mlCNBD-FRET after drug stimulation; format: cell-based; conditions: 20 µM isoproterenol, n = 9
Description: Cells were cultured in Ibidi μ-slides (Ibidi, Planegg, Germany) attached to a home-built gravity-flow perfusion system. Measurements were performed using a CellR live-cell imaging system (Olympus) with 20x objective. Cells were perfused with extracellular solution (ES: 120 mM NaCl, 5 mM KCl, 2 mM MgCl2, 2 mM CaCl2, 10 mM HEPES, 10 mM glucose, pH 7.4) to determine the basal FRET ratio and then the stimulus was added (NKH477 and IBMX, Tocris, Wiesbaden, Germany; Isoproterenol and SNP, Sigma-Aldrich). FRET was recorded by exciting cerulean at 436 nm and measuring the emission of cerulean and citrine at 470 nm and 535 nm, respectively. The change in FRET (emissioncerulean/emissioncitrine) was calculated, corrected for bleed-through, normalized to the baseline, and plotted versus time.
For population measurement using a spectrofluorometer (Quantamaster 40, PTI), HEK293 cells were trypsinized at 37°C for 5 min and washed twice with ES. […] Fluorescence spectra at steady-state were recorded with excitation at 430 nm and 0.5 s integration time. For time-resolved measurements, cells were excited at 430 nm and emission was recorded at 470 nm (cerulean) and 530 nm (citrine) at an acquisition frequency of 1 Hz. The change in FRET (emissioncerulean/emissioncitrine) was calculated, corrected for bleed-through, normalized to the baseline, and plotted versus time.

[3] = system: HEK293 cells expressing SSTR3-mlCNBD-FRET; test: FRET change in HEK293 cells expressing SSTR3-mlCNBD-FRET; format: cell-based; conditions: 20 μM isoproterenol, n = 9
Description: Cells were cultured in Ibidi μ-slides (Ibidi, Planegg, Germany) attached to a home-built gravity-flow perfusion system. Measurements were performed using a CellR live-cell imaging system (Olympus) with 20x objective. […] Isoproterenol and SNP, Sigma-Aldrich). FRET was recorded by exciting cerulean at 436 nm and measuring the emission of cerulean and citrine at 470 nm and 535 nm, respectively. The change in FRET (emissioncerulean/emissioncitrine) was calculated, corrected for bleed-through, normalized to the baseline, and plotted versus time. The full-length mouse SSTR3 cloned into pEGFP-N1 was kindly provided by Greg Pazour (UMass Medical School). For expression of SSTR3-tagged mlCNBD-FRET, the SSTR3 coding sequence was amplified by a recombinant PCR reaction to delete the internal NheI site. The fragment was subcloned into […].

[4] = stopped-flow, 10 mM NH4Cl or 25 mM bicarbonate
[5] = perfusion with 25 mM bicarbonate, n = 7

SMILES: O=C([O-])O.[Na+] [bicarbonate, NaHCO3]
- change in pHi (wild-type sperm; [4]): did not dramatically change pHi
- time for total cAMP levels to decline to basal levels (sperm): ≤ 10 min
- cAMP increase (FRET) in midpiece [1, 5]: 26 ± 3%
- cAMP increase (FRET) in principal piece [1, 5]: 22 ± 10%
- change in cAMP (FRET) (mlCNBD-FRET sperm; 25 mM bicarbonate, 10 μM [Ca2+]o): did not change the cAMP concentration
- time to steady-state of free cAMP increase (mlCNBD-FRET sperm; 25 mM bicarbonate, 2 mM Ca2+ buffer): about 5 min
- change in cAMP (FRET) (mlCNBD-FRET sperm; bicarbonate at 2.2 nM [Ca2+]o (10 μM Ca2+/1 mM BAPTA)): did not further enhance cAMP levels

SMILES: C=CC1(C)CC(=O)C2(O)C(C)(O1)C(OC(C)=O)C(OC(=O)CCN(C)C)C1C(C)(C)CCC(O)C12C (centres unmarked) [NKH477]
- cAMP change (FRET) in midpiece or principal piece ([1]; perfusion with 40 μM NKH477, n = 3): 0 ± 3%

SMILES: Cl.N [NH4Cl]
- change in pHi (wild-type sperm; [4]): pronounced alkalization

SMILES: C=CC1(C)CC(=O)C2(O)C(C)(O1)C(OC(C)=O)C(OC(=O)CCN(C)C)C1C(C)(C)CCC(O)C12C (centres unmarked) [NKH477, colforsin daropate hydrochloride (water-soluble forskolin derivative)]
- EC50 (tmAC): 3.6 µM

SMILES: O=C([O-])CN(CC(=O)[O-])c1ccccc1OCCOc1ccccc1N(CC(=O)[O-])CC(=O)[O-].[K+].[K+].[K+].[K+] [BAPTA, 1,2-Bis(2-aminophenoxy)ethane-N,N,N′,N′-tetraacetic acid tetrapotassium salt]
- change in pHi (wild-type sperm; spectrofluorometer, 3 mM BAPTA reducing [Ca2+]o to 443 nM): did not change pHi

SMILES: Nc1nc2c(ncn2[C@@H]2O[C@@H]3COP(=O)(O)O[C@H]3[C@H]2O)c(=O)[nH]1 [cGMP, cyclic guanosine 3',5'-monophosphate]
- Kd (mlCNBD-FRET): 504 nM

SMILES: CC(C)NCC(O)c1ccc(O)c(O)c1 (centres unmarked) [isoproterenol]
- change of ΔF [2]: 47 ± 3%
- increase of FRET ratio [3]: approximately 25%
